Assay type in all cases: in vivo
Assay [1] concerns Dermatophagoides farinae Hughes. Kind of assay: Mite repellent effect test (impregnated black paper). To be noted: mites counted after 15 minutes, vs acetone control. The protocol:
The repellent effects of compounds shown in Table 1 were evaluated in accordance with the following method. 1. Mite (or mites) under test: Dermatophagoides farinae Hughes. 2. Testing method: Each test compound was diluted with acetone, black paper 2.5 cm square was impregnated with the diluted test compound in such a manner that the test compound is impregnated in a proportion of 100 μg or 1,000 μg per cm^2 and the black paper was air-dried under room temperature for 2 hours. Black paper treated with acetone alone was also provided as a control group. Mites grown at high density were transferred together with a medium to a glass batt (15×20 cm), and a sheet of gauze cut out in the same size was placed thereon. This medium was placed in a plastic closed container controlled at relative humidity of at least 85% with saturated brine and incubated at 25° C. Three sheets of the black paper treated with the test compound were arranged side by side at intervals of at least 5 mm on the gauze to count the number of the mites climbed up the front and back surfaces of the black paper after 15 minutes. This process was repeated 3 times to find an average value, and it was compared with the control group to calculate out a repelling rate in accordance with the following equation. Repelling rate={(A−B)/A}×100(%) wherein A is the number of mites climbed up in the control group, and B is the number of mites climbed up in the treated group.

The test system is the same in assay [2]. The assay can be described thus: Miticidal effect test (impregnated folded filter paper). To be noted: 1,000 μg per cm^2 on filter paper, 25° C. The protocol: The miticidal effects of compounds shown in Table 2 were evaluated in accordance with the following method. • 1. Mite or Mites under test: Dermatophagoides farinae Hughes. • 2. Testing method:
Each test compound was diluted with acetone, filter paper 5×10 cm in size was impregnated with the diluted test compound in such a manner that the test compound is impregnated in a proportion of 1,000 μg per cm^2, and the filter paper was air-dried at room temperature for 2 hours. Filter paper treated with acetone alone was also provided as a control group. Each filter paper was folded in two, and 20 to 40 mites were freed therein to close the open portion with aclip in such a manner that the mites cannot escape. After the filter paper was incubated for 24 hours or 48 hours in an environment of 25° C. and relative humidity of at least 80%, the numbers of the living or dead mites are calculated through a stereoscopic microscope. This process was repeated 3 times to find an average lethality, and it was compared with the untreated group to calculate out a compensated lethality in accordance with the following equation. Compensated lethality={(Y−X)/(100−X)}×100 (%) wherein X is an average lethality in the control group, and Y is an average lethality in the treated group.

The test system is the same in assay [3]. Kind of assay: Mite growth inhibition test in treated medium. To be noted: for inhibition at 0.045 % strength: 0.045 % by weight in medium; for inhibition at 0.12 % strength: 0.12 % by weight in medium; for inhibition at 0.23 % strength: 0.23 % by weight in medium; for inhibition at 0.34 % strength: 0.34 % by weight in medium. On the procedure:
The inhibitory effect of methyl dihydrojasmonate on the growth of mites was evaluated in accordance with the following method. • 1. Mite (or Mites) under test: Dermatophagoides farinae Hughes. • 2. Testing method:
After a predetermined amount of methyl dihydrojasmonate diluted with ethanol was added to mite-free sterilized medium (10 g; MF powder feed; Oriental Yeast Co., Ltd.), and both were mixed, the mixture was air-dried at room temperature for at least 3 hours to provide a treated group. A medium mixed with ethanol was provided as a control group. Mites sufficiently grown with the same medium as described above in advance were fully mixed with the medium, and this mixture (1 g) was mixed into the test medium containing methyl dihydrojasmonate and control medium, respectively. After fully stirred, the mites were raised at 25° C. for 22 days. A sample (0.1 g) was taken out of each medium to count the number of active mites through a microscope, thereby calculating out a mite growth-inhibiting rate. Incidentally, the test was repeated 3 times to conduct the evaluation in terms of the average value thereof. Mite growth-inhibiting rate={(T−S)/T}×100 (%) wherein T is the number of viable mites in the control group, and S in the number of viable mites in the treated group.

The mark [4] stands for this setting: concentration of compound 100 μg/cm^2 on black paper.
The mark [5] stands for this setting: concentration of compound 1,000 μg/cm^2 on black paper.
Setting [6] is: 8th day, read-out: Growth-inhibiting rate on the 8th day.
Where [7] appears, read: 22nd day, read-out: Growth-inhibiting rate on the 22nd day.

Read-outs that look alike come from different tables or passages of the source.

Turning to `CC/C=C\CC1=C(C)CCC1=O` [cis-Jasmone], the Repelling rate in assay [1] (setting [4]) was 72%; in assay [1] (setting [5]), 85%.
For `CC/C=C\CC1C(=O)CCC1CC(=O)OC` (stereo not drawn) [Methyl jasmonate], in that order: 93% and 97%.
`CCCCCC1C(=O)CCC1CC(=O)OC` (stereo not drawn) [Methyl dihydrojasmonate]: the Repelling rate in assay [1] (setting [4]) is 90%. The same molecule registered a Repelling rate in assay [1] (setting [5]) of 94%. This molecule yielded a Compensated lethality in assay [2] (incubation time 24 hr) of 100%. Besides, the Compensated lethality in assay [2] (incubation time 48 hr) is 100%. Moreover, in assay [3] (setting [6]), the inhibition at 0.045 % strength turned out to be 75%, the inhibition at 0.12 % strength turned out to be 86%, the inhibition at 0.23 % strength came to 93% and the inhibition at 0.34 % strength turned out to be 92%. Besides, in assay [3] (setting [7]), the inhibition at 0.045 % strength is 54%, the inhibition at 0.12 % strength amounted to 61%, the inhibition at 0.23 % strength was found to be 69% and the inhibition at 0.34 % strength turned out to be 80%.
For `CCCCCC1=C(C)CCC1=O` [Dihydrojasmone], the results for the Repelling rate in assay [1] (setting [4]) and in assay [1] (setting [5]) were 80% and 83%, respectively.
`CC(C)=CCCC(C)=CCCC(C)=CCO` [Farnesol]: the figures for the Repelling rate in assay [1] (setting [4]) and in assay [1] (setting [5]) were 94% and 96%, respectively. Besides, the Compensated lethality was determined as 63% in assay [2] (incubation time 24 hr) and 77% in assay [2] (incubation time 48 hr).
For the molecule `C=C(C)C1CC=C(C)C(=O)C1` (stereo not drawn) [Carvone, reference compound], the values for the Repelling rate in assay [1] (setting [4]) and in assay [1] (setting [5]) were 10% and 29%, respectively.
On the same counts, the results for `C=CC(C)(O)CCC=C(C)C` (stereo not drawn) [Linalool, reference compound] are 47% and 57%.
Take `C=CC(C)(O)CCC=C(C)CCC=C(C)C` (stereo not drawn) [Nerolidol]: the values for the Repelling rate in assay [1] (setting [4]) and in assay [1] (setting [5]) were 80% and 79%, respectively.
For `C/C(=C\CO)CCC[C@H](C)CCC[C@H](C)CCCC(C)C` [Phytol], in that order: 52% and 72%.

Source of the values: patent US6914077B2, “Mite repellant and/or miticide composition” (Kao Corporation, priority 2001, dated 2005).
